Blank lines part the entries; values can stand above or below the compound they belong to.
Experiments:
[1] = tested on: caterpillars of diamond-back moth (Plutella maculipennis); test: Plutella test; assay type: in vivo; conditions: cabbage leaves dipped, active compound concentration 0.1 %
Experimental: (§1) To produce a suitable preparation of active compound, 1 part by weight of active compound is mixed with the stated amount of solvent and the stated amount of emulsifier, and the concentrate is diluted with water to the desired concentration.
Cabbage leaves (Brassica oleracea) are treated by being dipped into the preparation of active compound of the desired concentration and are populated with caterpillars of diamond-back moth (Plutella maculipennis) while the leaves are still moist.
(§2) After the desired period of time, the kill in % is determined. 100% means that all the caterpillars have been killed; 0% means that none of the caterpillars have been killed.

[2] = tested on: R-strain of Pseudocercosporella herpotrichoides; test: Pseudocercosporella herpotrichoides test; R-strain (wheat)/protective; assay type: in vivo; conditions: protective, application rate 250 g/ha, evaluation 21 days after inoculation
Experimental: Pseudocercosporella herpotrichoides Test; R-Strain (Wheat)/Protective
(§3) To produce a suitable preparation of active compound, 1 part by weight of active compound is mixed with the stated amounts of solvent and emulsifier and the concentrate is diluted with water to the desired concentration.
To test for protective activity, young plants are sprayed with the preparation of active compound at stated application rates.
After the spray-coating has dried on, the plants are inoculated at the base of the stem with spores of the R-strain of Pseudocercosporella herotrichoides.
The plants are placed in a greenhouse at a temperature of approximately 10° C. and a relative atmospheric humidity of approximately 80%.
Evaluation is carried out 21 days after the inoculation. 0% means an efficacy which corresponds to that of the control, while an efficacy of 100% means that no infection is observed.

Pyrenophora teres = Pyrenophora teres test (barley)/protective; assay type: in vivo; conditions: protective, application rate 125 g/ha, evaluation 7 days after inoculation
Experimental: Pyrenophora teres Test (Barley)/Protective
(§4) To produce a suitable preparation of active compound, 1 part by weight of active compound is mixed with the stated amounts of solvent and emulsifier, and the concentrate is diluted with water to the desired concentration.
To test for protective activity, young plants are sprayed with the preparation of active compound at the stated application rate.
After the spray-coating has dried on, the plants are sprayed with a conidia suspension of Pyrenophora teres.
The plants remain in an incubation cabin at 20° C. and 100% relative atmospheric humidity for 48 hours.
The plants are placed in a greenhouse at a temperature of approximately 20° C. in a relative atmospheric humidity of approximately 80%.
Evaluation is carried out 7 days after the inoculation. 0% means an efficacy which corresponds to that of the untreated control, while an efficacy of 100% means that no infection is observed.

Plasmopara viticola = test: Plasmopara test (grape vines)/protective; assay type: in vivo; conditions: protective, application rate 100 g/ha, evaluation 6 days after inoculation
Experimental: Plasmopara Test (Grape Vines)/Protective
as §3
To test for protective activity, young plants are sprayed with the preparation of active compound at the stated application rate. After the spray-coating has dried on, the plants are inoculated with an aqueous spore suspension of Plasmopara viticola and then remain in an incubation cabin at approximately 20° C. and 100% relative atmospheric humidity for 1 day. The plants are subsequently placed in a greenhouse at approximately 21° C. and approximately 90% relative atmospheric humidity for 5 days. The plants are then moistened and placed in an incubation cabin for 1 day.
Evaluation is carried out 6 days after the inoculation. 0% means an efficacy which corresponds to that of the control, while an efficacy of 100% means that no infection is observed.

Coniophora puteana = test: Inhibitory test with giant colonies of Basidiomycetes (Coniophora puteana); assay type: cell-based; conditions: after 3 or 7 days at 26° C., vs untreated control; for inhibition at 1 ppm: 1 ppm in agar, read-out: Inhibition of the growth of the hypha in % with Coniophora puteana at an active compound concentration of 1 ppm; for inhibition at 3 ppm: 3 ppm in agar, read-out: Inhibition of the growth of the hypha in % with Coniophora puteana at an active compound concentration of 3 ppm; for inhibition at 6 ppm: 6 ppm in agar, read-out: Inhibition of the growth of the hypha in % with Coniophora puteana at an active compound concentration of 6 ppm
Experimental: (§5) Inhibitory Test with Giant Colonies of Basidiomycetes.
(§6) To produce a suitable preparation of active compound, 0.2 parts by weight of active compound are admixed with 99.8 parts by weight of the abovementioned solvent.
(§7) An agar which has been prepared using malt extract peptone is mixed in the liquid state with the preparation of active compound at the particular desired application rate. After the agar has set, the resulting nutrient medium is incubated at 26° C. with pieces of mycelium which had been punched out of colonies of Coniophora puteana or Coriolus versicolor.
(§8) Evaluation is carried out after 3 or 7 days' storage at 26° C. by measuring the growth of the hypha and scoring the resulting inhibition in percent in comparison to the untreated control. 0% means an inhibition of growth which corresponds to that of the untreated control, while an inhibition of growth of 100% means that no growth of the hypha is observed.

Coriolus versicolor = test: Inhibitory test with giant colonies of Basidiomycetes (Coriolus versicolor); assay type: cell-based; conditions: Trametes versicolor, after 3 or 7 days at 26° C., vs untreated control; for inhibition at 1 ppm: 1 ppm in agar, read-out: Inhibition of the growth of the hypha in % with Coriolus versicolor at an active compound concentration of 1 ppm; for inhibition at 3 ppm: 3 ppm in agar, read-out: Inhibition of the growth of the hypha in % with Coriolus versicolor at an active compound concentration of 3 ppm; for inhibition at 6 ppm: 6 ppm in agar, read-out: Inhibition of the growth of the hypha in % with Coriolus versicolor at an active compound concentration of 6 ppm
Experimental: as §5, §6, §7, §8

Venturia inaequalis [3] = test: Venturia test (apple)/protective (Example B, spray liquor concentration); assay type: in vivo; conditions: protective, 100 ppm in spray liquor, evaluation 12 days after inoculation
Experimental: (§9) Venturia Test (Apple)/Protective
as §4
To test for protective activity, young plants are sprayed with the preparation of active compound until dew-moist. After the spray-coating has dried on, the plants are inoculated with an aqueous conidia suspension of the causative organism of apple scab Venturia inaequalis and then remain in an incubation cabin at 20° C. and 100% relative atmospheric humidity for 1 day.
(§10) The plants are then placed in a greenhouse at 23° C. and a relative atmospheric humidity of approximately 70%.
Evaluation is carried out 12 days after the inoculation. 0% means an efficacy which corresponds to that of the untreated control, while an efficacy of 100% means that no infection is observed.

Podosphaera leucotricha = test: Podosphaera test (apple)/protective; assay type: in vivo; conditions: protective, 100 ppm in spray liquor, evaluation 10 days after inoculation
Experimental: Podosphaera Test (Apple)/Protective
as §4
To test for protective activity, young plants are sprayed with the preparation of active compound until dew-moist. After the spray-coating has dried on, the plants are inoculated by dusting with conidia of the causative organism of apple mildew Podosphaera leucotricha.
as §10
Evaluation is carried out 10 days after the inoculation. 0% means an efficacy which corresponds to that of the untreated control, while an efficacy of 100% means that no infection is observed.

[4] = tested on: peach aphids (Myzus persicae); test: Myzus test; assay type: in vivo; conditions: infested cabbage leaves dipped, active compound concentration 0.1 %
Experimental: as §1
Cabbage leaves (Brassica oleracea) which are heavily infested by peach aphids (Myzus persicae) are treated by being dipped into the preparation of active compound of the desired concentration.
After the desired period of time, the kill in % is determined. 100% means that all the aphids have been killed, 0% means that none of the aphids have been killed.

[5] = tested on: caterpillars of the owlett moth (Spodoptera frugiperda); test: Spodoptera test; assay type: in vivo; conditions: cabbage leaves dipped, active compound concentration 0.1 %
Experimental: as §1
Cabbage leaves (Brassica oleracea) are treated by being dipped into the preparation of active compound of the desired concentration and are populated with caterpillars of the owlett moth (Spodoptera frugiperda) while the leaves are still moist.
as §2

Venturia inaequalis [6] = test: Venturia test (apple)/protective (Example K, application rate); assay type: in vivo; conditions: protective, application rate 100 g/ha, evaluation 12 days after inoculation
Experimental: as §9, §4
To test for protective activity, young plants are sprayed with the preparation of active compound at the stated application rate. After the spray-coating has dried on, the plants are inoculated with an aqueous Conidia suspension of the causative organism of apple scab Venturia inaequalis and then remain in an incubation cabin at approximately 20° C. and 100% relative atmospheric humidity for 1 day.
The plants are subsequently placed in a greenhouse at approximately 21° C. and a relative atmospheric humidity of approximately 90%.
Evaluation is carried out 12 days after the inoculation. 0% means an efficacy which corresponds to that of the control, while an efficacy of 100% means that no infection is observed.

SMILES: Cc1ccc(OCc2ccccc2NC(=O)c2cn(C)nc2C(F)F)c(C)c1 [drawing 532]
- Degree of kill in % after 7 d [1]: 100%

SMILES: C/C(=N\OCc1ccccc1NC(=O)c1cn(C)nc1C)c1cccc(C(F)(F)F)c1
- Efficacy in % [2]: 90%

SMILES: Cn1cc(C(=O)Nc2ccccc2C=Cc2ccccc2)c(C(F)F)n1 [drawing 528]
- Efficacy in % (Pyrenophora teres): 83%

SMILES: Cc1ccc(SCc2ccccc2NC(=O)c2ccccc2C(F)(F)F)cc1
- Efficacy in % (Plasmopara viticola): 95%

- melting point: 122 °C
SMILES: Cn1cc(C(=O)Nc2ccccc2C=Cc2ccccc2)c(C(F)F)n1 [Example 20]
- inhibition at 1 ppm (Coniophora puteana): 100%
- inhibition at 3 ppm (Coniophora puteana): 100%
- inhibition at 6 ppm (Coniophora puteana): 100%
- inhibition at 1 ppm (Coriolus versicolor): 100%
- inhibition at 3 ppm (Coriolus versicolor): 100%
- inhibition at 6 ppm (Coriolus versicolor): 100%

SMILES: CC1=C(C(=O)Nc2ccccc2CSc2ccccc2)SCCO1
- Efficacy in % (Plasmopara viticola): 90%

SMILES: Cc1nc(C(F)(F)F)c(C(=O)Nc2ccccc2CSc2ccccc2)s1 [drawing 531]
- Degree of kill in % after 7 d [1]: 100%

- melting point: 108 °C
SMILES: Cc1ccc(SCc2ccccc2NC(=O)c2cn(C)nc2C(F)F)cc1 [Example 46]
- inhibition at 1 ppm (Coniophora puteana): 80%
- inhibition at 3 ppm (Coniophora puteana): 100%
- inhibition at 6 ppm (Coniophora puteana): 100%
- inhibition at 1 ppm (Coriolus versicolor): 100%
- inhibition at 3 ppm (Coriolus versicolor): 100%
- inhibition at 6 ppm (Coriolus versicolor): 100%

SMILES: Cn1cc(C(=O)Nc2ccccc2C=Cc2ccccc2)c(C(F)F)n1 [drawing 524]
- Efficacy in % at an active compound concentration in the spray liquor of 100 ppm (Venturia inaequalis [3]): 100%

SMILES: O=C(Nc1ccccc1Oc1ccccc1)c1ccccc1C(F)(F)F [drawing 518]
- Efficacy in % at an active compound concentration in the spray liquor of 100 ppm (Podosphaera leucotricha): 100%

SMILES: Cc1cccc(OCc2ccccc2NC(=O)c2cn(C)nc2C(F)(F)F)c1 [drawing 527]
- Efficacy in % at an active compound concentration in the spray liquor of 100 ppm (Venturia inaequalis [3]): 90%

SMILES: CC1=C(C(=O)Nc2ccccc2OCc2cc(Cl)cc(Cl)c2)SCCO1
- Degree of kill in % after 7 d [1]: 100%

SMILES: Cc1nn(C)cc1C(=O)Nc1ccccc1Oc1ccccc1 [drawing 519]
- Efficacy in % at an active compound concentration in the spray liquor of 100 ppm (Podosphaera leucotricha): 96%

SMILES: O=C(Nc1ccccc1OCc1ccccc1)C1=C(C(F)(F)F)OCCS1
- Degree of kill in % after 7 d [1]: 90%

SMILES: Cc1nc(C(F)(F)F)c(C(=O)Nc2ccccc2Oc2ccccc2)s1
- Efficacy in % at an active compound concentration in the spray liquor of 100 ppm (Venturia inaequalis [3]): 94%

- melting point: 197 °C
SMILES: Cn1cc(C(=O)Nc2ccccc2Oc2ncnc(F)c2F)c(C(F)(F)F)n1 [Example 3, 2-(4,5-difluoro-pyrimdyl-6-oxy)-1-methyl-3-trifluoro-methyl-1-pyrazole-4-carboxanilide]

SMILES: Cc1cccc(OCc2ccccc2NC(=O)c2cn(C)nc2C(F)(F)F)c1 [drawing 539]
- Degree of kill in % after 7 d [4]: 95%

- melting point: 117 °C
SMILES: Cn1cc(C(=O)Nc2ccccc2C=Cc2ccccc2)c(C(F)(F)F)n1 [Example 16]
- inhibition at 1 ppm (Coniophora puteana): 80%
- inhibition at 3 ppm (Coniophora puteana): 100%
- inhibition at 6 ppm (Coniophora puteana): 100%
- inhibition at 1 ppm (Coriolus versicolor): 100%
- inhibition at 3 ppm (Coriolus versicolor): 100%
- inhibition at 6 ppm (Coriolus versicolor): 100%

SMILES: Cc1ccc(OCc2ccccc2NC(=O)c2cn(C)nc2C)cc1
- Degree of kill in % after 7 d [5]: 100%

SMILES: Cc1cccc(COc2ccccc2NC(=O)c2cn(C)nc2C)c1
- Degree of kill in % after 7 d [1]: 100%

SMILES: Cc1ccc(OCc2ccccc2NC(=O)c2cn(C)nc2C(F)F)c(C)c1 [drawing 526]
- Efficacy in % at an active compound concentration in the spray liquor of 100 ppm (Venturia inaequalis [3]): 95%

SMILES: Cc1nn(C)cc1C(=O)Nc1ccccc1CSc1ccc(Cl)cc1 [drawing 534]
- Degree of kill in % after 7 d [1]: 100%

SMILES: Cc1ccc(SCc2ccccc2NC(=O)c2cn(C)nc2C(F)F)cc1 [drawing 525]
- Efficacy in % at an active compound concentration in the spray liquor of 100 ppm (Venturia inaequalis [3]): 100%

SMILES: Cc1nn(C)cc1C(=O)Nc1ccccc1Oc1ccccc1 [drawing 521]
- Efficacy in % at an active compound concentration in the spray liquor of 100 ppm (Venturia inaequalis [3]): 83%

SMILES: Cc1ccccc1OCc1ccccc1NC(=O)c1ccccc1C(F)(F)F
- Degree of kill in % after 7 d [1]: 100%

SMILES: Cc1ccc(SCc2ccccc2NC(=O)c2cn(C)nc2C(F)F)cc1 [drawing 529]
- Efficacy in % (Pyrenophora teres): 75%

SMILES: CC1=C(C(=O)Nc2ccccc2Oc2ccccc2)SCCO1
- Efficacy in % (Venturia inaequalis [6]): 100%

- melting point: 120 °C
SMILES: Cc1ccc(OCc2ccccc2NC(=O)c2cn(C)nc2C(F)F)c(C)c1 [Example 50]
- inhibition at 1 ppm (Coniophora puteana): 100%
- inhibition at 3 ppm (Coniophora puteana): 100%
- inhibition at 6 ppm (Coniophora puteana): 100%
- inhibition at 1 ppm (Coriolus versicolor): 100%
- inhibition at 3 ppm (Coriolus versicolor): 100%
- inhibition at 6 ppm (Coriolus versicolor): 100%

SMILES: O=C(Nc1ccccc1Oc1ccccc1)c1ccccc1C(F)(F)F [drawing 520]
- Efficacy in % at an active compound concentration in the spray liquor of 100 ppm (Venturia inaequalis [3]): 83%
